Reference: US10912741B2, “Prevention of liver cancer with safranal-based formulations” (United Arab Emirates University, priority 2019, dated 2021)

Test system: Ki-67
Assay: Immunohistochemical staining of liver sections, Ki-67 (cell proliferation)
Format: in vivo, albino Wistar rats
Experimental: The experimental hepatocarcinogenesis model was developed according to a protocol by Espandiaria et al. that was adapted for our purposes. To initiate and promote hepatocarcinogenesis, diethylnitrosamine (DEN) and 2-acetylaminofluorene (2-AAF) were used, respectively. For hepatocarcinogenesis initiation in this model, a single DEN dose (200 mg/kg b.wt.) dissolved in saline was injected intraperitoneally. After initiation, all rats underwent one period of 5-days fasting, as mitotic proliferative stimuli. To promote hepatocarcinogenesis, 2-acetylaminofluorene (2-AAF) was introduced in the form of six daily intragastric doses (30 mg/kg in 1% Tween 80); two weeks after DEN treatment.
Safranal at doses of 25 mg/kg by weight (b.wt.) and 50 mg/kg b.wt, was administrated orally to rats. These doses have been reported to suppress chemically-induced oxidative damage in rats. A total of 40 adult male albino Wistar rats were randomly divided into […] (n=8) and were subjected to different treatments. […]
For immunohistochemical staining, mounted sections were immersed in sodium citrate buffer (0.1 M, pH 6) and placed in a water bath for 15 minutes to unmask antigen epitopes. […] Ten fields were randomly selected to quantify positive cells, in individual samples (400×). […]

CC1=C(C=O)C(C)(C)CC=C1 [Safranal, 2,6,6-trimethylcyclohexa-1,3-diene-1-carbaldehyde]
number of Ki-67 positive cells (low/high doses of safranal in animals exposed to DEN (groups 4-5)): dramatically reduced the number of Ki-67 positive cells
number of Ki-67-expressing hepatocytes (safranal alone (group 2)): did not induce a significant change
